Activity calls are given as the source filed them. The calls are words filed in the database; no cut-off is given here.
Experiments:
[1] = target: T1, Serine/threonine-protein kinase Chk1 (Homo sapiens, UniProt O14757); test: Competitive inhibition of Chk1 in presence of higher ATP levels
T1 sequence (O14757 whole entry): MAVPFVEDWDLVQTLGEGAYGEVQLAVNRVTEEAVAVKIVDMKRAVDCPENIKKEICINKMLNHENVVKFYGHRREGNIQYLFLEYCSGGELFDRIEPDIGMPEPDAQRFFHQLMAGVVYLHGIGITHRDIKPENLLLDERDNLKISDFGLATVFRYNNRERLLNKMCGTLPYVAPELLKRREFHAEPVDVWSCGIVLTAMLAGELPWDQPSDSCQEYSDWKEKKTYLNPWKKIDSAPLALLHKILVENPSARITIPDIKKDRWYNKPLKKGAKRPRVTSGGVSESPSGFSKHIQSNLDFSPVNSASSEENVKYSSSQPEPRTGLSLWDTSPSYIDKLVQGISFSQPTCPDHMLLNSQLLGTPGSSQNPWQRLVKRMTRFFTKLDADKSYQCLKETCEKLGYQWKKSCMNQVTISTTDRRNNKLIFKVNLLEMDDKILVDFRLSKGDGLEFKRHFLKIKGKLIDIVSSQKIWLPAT

[2] = target: T2, Serine/threonine-protein kinase Chk1 (Homo sapiens) (UniProt O14757); test: Inhibition of immobilized Chk1 at 11 nM incubated for 30 mins followed by 24 hrs washout by HTRF assay
T2 sequence (whole entry): T1 sequence (O14757 whole entry)

[3] = target: T2, Serine/threonine-protein kinase Chk1 (Homo sapiens); test: Competitive inhibition of immobilized Chk1 at 11 nM incubated for 30 mins followed by 24 hrs washout by HTRF assay in presence of 100 uM ATP

Row | IC50 [1] | inhibition [2] | inhibition [3] | Compound
1 | 47 nM |  |  | CS(=O)(=O)N1CCN(c2ccnc(Nc3ncc(-c4cncnc4)s3)c2)CC1
2 | 0.05 nM |  |  | NCCNC(=O)c1cncc(-c2cnc(Nc3cc(N4CCNCC4)ccn3)s2)c1
3 | 35 nM |  |  | N#Cc1cncc(-c2cnc(Nc3cc(N4CCNCC4)ccn3)s2)c1
4 | 1 nM |  |  | CNCCNC(=O)c1cncc(-c2cnc(Nc3cc(N4CCOCC4)ccn3)s2)c1
5 | 520 nM |  |  | c1ccc(-c2cnc(Nc3cc(N4CCNCC4)ccn3)s2)cc1
6 | 0.03 nM |  |  | CC(=O)N1CCN(c2ccnc(Nc3ncc(-c4cncc(C(=O)NCCN)c4)s3)c2)CC1
7 | > 1050 nM |  |  | Brc1cccc(-c2cnc(Nc3cc(N4CCNCC4)ccn3)s2)c1
8 | 6 nM |  |  | OCC#Cc1cncc(-c2cnc(Nc3cc(N4CCOCC4)ccn3)s2)c1
9 | 37 nM |  |  | c1ncc(-c2cncc(-c3cnc(Nc4cc(N5CCOCC5)ccn4)s3)c2)cn1
10 | 19 nM |  |  | c1cncc(-c2cncc(-c3cnc(Nc4cc(N5CCOCC5)ccn4)s3)c2)c1
11 | 206 nM |  |  | CC(=O)N1CCN(c2ccnc(Nc3ncc(-c4ccc(C)nc4)s3)c2)CC1
12 | 90 nM |  |  | OCCNc1ccnc(Nc2ncc(-c3cncnc3)s2)c1
13 | 320 nM |  |  | NC/C=C/c1cncc(-c2cnc(Nc3cc(N4CCOCC4)ccn3)s2)c1
14 | 350 nM |  |  | COc1ncccc1-c1cncc(-c2cnc(Nc3cc(N4CCOCC4)ccn3)s2)c1
15 | 35 nM |  |  | c1cc(N2CCOCC2)cc(Nc2ncc(-c3cncc(-c4cn[nH]c4)c3)s2)n1
16 | 440 nM |  |  | N#Cc1cncc(-c2cnc(Nc3cc(N4CCOCC4)ccn3)s2)c1

Row | IC50 [1] | inhibition [2] | inhibition [3] | Compound
17 | 29 nM |  |  | Cc1ncc(-c2cnc(Nc3cc(N4CCNCC4)ccn3)s2)cn1
18 | 60 nM |  |  | COc1ncc(-c2cncc(-c3cnc(Nc4cc(N5CCOCC5)ccn4)s3)c2)cn1
19 | 29 nM |  |  | Cc1ncc(-c2cnc(Nc3cccc(NCCCN)n3)s2)cn1
20 | 49 nM |  |  | OCC1CN(c2ccnc(Nc3ncc(-c4cccnc4)s3)c2)CCO1 (stereo not drawn)
21 | 113 nM |  |  | Cc1ccc(-c2cnc(Nc3cc(N4CCN(S(C)(=O)=O)CC4)ccn3)s2)cn1
22 | 0.4 nM |  |  | NCCNC(=O)c1cncc(-c2cnc(Nc3cc(CN4CCOCC4)ccn3)s2)c1
23 | 120 nM |  |  | Cc1ncc(-c2cnc(Nc3cccc(N4CCNCC4)n3)s2)cn1
24 | 60 nM |  |  | Cc1ncc(-c2cnc(Nc3cc(N4CCOCC4)ccn3)s2)cn1
25 | 0.03 nM |  |  | CS(=O)(=O)N1CCN(c2ccnc(Nc3ncc(-c4cncc(C(=O)NCCN)c4)s3)c2)CC1
26 | 12 nM |  |  | NCCCc1cncc(-c2cnc(Nc3cc(N4CCOCC4)ccn3)s2)c1
27 | 8 nM |  |  | c1cc(N2CCNCC2)cc(Nc2ncc(-c3cncc(-c4cn[nH]c4)c3)s2)n1
28 | 0.27 nM |  |  | NCCC(=O)c1cncc(-c2cnc(Nc3cc(N4CCOCC4)ccn3)s2)c1
29 | 1.4 nM |  |  | NCCCNC(=O)c1cncc(-c2cnc(Nc3cc(N4CCOCC4)ccn3)s2)c1
30 | 37 nM |  |  | Cc1ccc(-c2cnc(Nc3cc(N4CCNCC4)ccn3)s2)cn1
31 | 0.05 nM | Active | Active | NCCNC(=O)c1cncc(-c2cnc(Nc3cc(N4CCC(F)(F)CC4)ccn3)s2)c1

— ChEMBL document CHEMBL2010744, “Pyridyl aminothiazoles as potent inhibitors of Chk1 with slow dissociation rates” (Bioorg Med Chem Lett, 2012)
